Laboratory results: patent US20220079913A1, “DIHYDROMYRICETIN WITH ANTI-ALCOHOLIC EFFECT” (Shanghai Spark Pharmaceutical Co., Ltd., priority 2020, published 2022)

Assays:
[1] = cited from earlier work
ICR mice [2] = assay: Anti-alcoholic (hangover) test; assay type: in vivo; conditions: for Number of deaths / Number of drunks: 20 animals; for Number of deaths / Number of drunks / Drunkenness rate / Mortality rate: after 10 hours of drinking
Procedure: (§1) Preparation of test substance: weighing the test substance of the required quality; adding sterile water for injection to prepare it to the required concentration; mixing well before administration.
(§2) Animal breeds and strains: ICR mice
60 experimental animals were divided into 3 groups, half male and […]. After fasting for 12 hours, according to the body weight, the control reagents the test substance were administered orally respectively.

ICR mice [3] = assay: Acute toxicity of dihydromyricetin, single oral gavage; assay type: in vivo
Procedure: (§3) Observation of the Acute Toxicity of Dihydromyricetin on ICR Mice
as §1, §2
(§4) After the adaptation period, 30 experimental animals were divided into 3 groups, half male and […]. After fasting for 12 hours, according to the body weight, the control reagents or the test substance were administered orally respectively. The animal's clinical symptoms after administration are observed, with abnormal records. The animals were weighed before the administration and on the 1, 3, 5, and 7 days after the administration. At the end of the experiment, the animals were euthanized by inhalation of excessive CO2

[4] = as above; assay type: in vivo, mice; conditions: ICR, mouse, in vivo, po
Procedure: as §3, §1, §2, §4

In the case of `O=C1c2c(O)cc(O)cc2OC(c2cc(O)c(O)c(O)c2)C1O` [Dihydromyricetin, (2R,3R)-3,5,7-trihydroxy-2-(3,4,5-trihydroxyphenyl) benzodihydropyran-4-one], the “solubility in chloroform and petroleum ether” value ([1]; chloroform and petroleum ether) is listed as “hardly soluble”, the “solubility in ethyl acetate” value ([1]; ethyl acetate) is listed as “very slightly soluble” and the “solubility in methanol, ethanol and acetone” value ([1]; methanol, ethanol and acetone) is listed as “easily soluble”. For the same molecule, the solubility in water ([1]; room temperature and cold water) was “Low solubility”, the Sobering time (ICR mice [2]; 350 mg/kg i.g. once) was 376.35 min and the Tolerance time (ICR mice [2]; 350 mg/kg i.g. once) was 77.40 min. It also gave a Number of deaths (ICR mice [2]; 350 mg/kg i.g. once) of 0, a Number of drunks (ICR mice [2]; 350 mg/kg i.g. once) of 19 and a Drunkenness rate (ICR mice [2]; 350 mg/kg i.g. once) of 95%. For the same molecule, the Mortality rate (ICR mice [2]; 350 mg/kg i.g. once) was 0%, the Sobering time (ICR mice [2]; 1050 mg/kg i.g. once) was 214.32 min and the Tolerance time (ICR mice [2]; 1050 mg/kg i.g. once) was 193.00 min. It also gave a Number of deaths (ICR mice [2]; 1050 mg/kg i.g. once) of 1, a Number of drunks (ICR mice [2]; 1050 mg/kg i.g. once) of 14 and a Drunkenness rate (ICR mice [2]; 1050 mg/kg i.g. once) of 70%. For the same molecule, the Mortality rate (ICR mice [2]; 1050 mg/kg i.g. once) was 5%, the Sobering time (ICR mice [2]; 1050 mg/kg i.g. once, listed as dihydromyricetin) was 214 min and the “sobering time compared with the control group” value (ICR mice [2]; 1050 mg/kg, control group 324 min, statistically different) was “significantly lower”. For the same molecule, the Mortality rate (ICR mice [3]; 3500 mg/kg i.g. once, day 0) was 0%, the Mortality rate (ICR mice [3]; 3500 mg/kg i.g. once, day 1) was 0% and the Mortality rate (ICR mice [3]; 3500 mg/kg i.g. once, day 2) was 0%. It also gave a Mortality rate (ICR mice [3]; 3500 mg/kg i.g. once, day 3) of 0%, a Mortality rate (ICR mice [3]; 3500 mg/kg i.g. once, day 4) of 0% and a Mortality rate (ICR mice [3]; 3500 mg/kg i.g. once, day 5) of 0%. The Mortality rate (ICR mice [3]; 3500 mg/kg i.g. once, day 6) was 0%, the Mortality rate (ICR mice [3]; 3500 mg/kg i.g. once, day 7) was 0% and the Mortality rate (ICR mice [3]; 5000 mg/kg i.g. once, day 0) was 0%. For the same molecule, the Mortality rate (ICR mice [3]; 5000 mg/kg i.g. once, day 1) was 0%, the Mortality rate (ICR mice [3]; 5000 mg/kg i.g. once, day 2) was 0% and the Mortality rate (ICR mice [3]; 5000 mg/kg i.g. once, day 3) was 0%. It also gave a Mortality rate (ICR mice [3]; 5000 mg/kg i.g. once, day 4) of 0%, a Mortality rate (ICR mice [3]; 5000 mg/kg i.g. once, day 5) of 0% and a Mortality rate (ICR mice [3]; 5000 mg/kg i.g. once, day 6) of 0%. The Mortality rate (ICR mice [3]; 5000 mg/kg i.g. once, day 7) was 0%, the “mortality rate during the test period” value (ICR mice [3]; 3500 and 5000 mg/kg, single oral administration) was 0 and the MTD at 7 days [4] was 5000 mg/kg.
